How the values were obtained:
Assay type in all cases: in vivo
Chenopodium album = assay: Test Example 5: herbicidal effect by foliage application, plastic box (symbol O); conditions: 320 g/ha, 3 weeks after application
Summary of the method: (§1)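 Herbicide, formulated as an emulsion and diluted in water, is sprayed onto the aerial parts of 14-day seedlings. These were grown at 25° C. to 30° C. in sterilized diluvial soil; effects are graded after 3 weeks.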

Scirpus juncoides [1] = assay: Test Example 2: herbicidal activity, application during weed generation in submerged conditions (symbol B); conditions: Table 23; application herbicide amount 320 g/ha; grade 0-5 by criteria of Test Example 1
Summary of the method: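 Submerged alluvial soil (4 cm) sown with mixed seed; greenhouse 25–30° C. 1–2 leaf: diluted emulsion onto water surface, preset dose. Visual score, 3 wk.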

Galium spurium = assay: Test Example 5: herbicidal effect by foliage application, plastic box (symbol Q); conditions: 320 g/ha, 3 weeks after application
Summary of the method: as §1

Setaria viridis = assay: Test Example 5: herbicidal effect by foliage application, plastic box (symbol G); conditions: 320 g/ha, 3 weeks after application
Summary of the method: as §1

Scirpus juncoides [2] = assay: Test Example 1: herbicidal activity, application before weed generation in submerged conditions (symbol B); conditions: application herbicide amount 320 g/ha
Summary of the method: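 In a flooded pot test with alluvial soil, the emulsion-formulated compound was diluted with water to a predetermined amount and applied to the floodwater immediately on the sowing day. Pots were held in a greenhouse at 25–30 °C for 3 weeks before each weed was rated.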

Amaranthus retroflexus = assay: Test Example 4: herbicidal effect by soil treatment (symbol N); conditions: application herbicide amount 320 g/ha
Summary of the method: (§2)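 Seeds were sown in sterilized diluvial soil, covered with about 1.5 cm of soil, and the soil surface was sprayed with a water-diluted emulsion of the compound at a predetermined rate. Plants grew in a greenhouse at 25° C. to 30° C.; effects were scored visually 3 weeks after application.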

Apera spica-venti [3] = assay: Test Example 4: herbicidal effect by soil treatment (symbol L); conditions: application herbicide amount 320 g/ha
Summary of the method: as §2

Avena fatua [4] = assay: Test Example 4: herbicidal effect by soil treatment (symbol I); conditions: application herbicide amount 320 g/ha
Summary of the method: as §2

Veronica persica = assay: Test Example 5: herbicidal effect by foliage application, plastic box (symbol R); conditions: 320 g/ha, 3 weeks after application
Summary of the method: as §1

Avena fatua [5] = assay: Test Example 5: herbicidal effect by foliage application, plastic box (symbol I); conditions: 320 g/ha, 3 weeks after application
Summary of the method: as §1

beet [6] = assay: Test Example 4: effect on crop by soil treatment (symbol f); conditions: application herbicide amount 320 g/ha
Summary of the method: (§3)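 Soil-treatment setup: crop and weed seeds were spot-sown into sterilized diluvial soil, then buried beneath approximately 1.5 cm of it, and the boxes were housed in a 25–30° C. greenhouse.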

soybean = assay: Test Example 5: effect on crop by foliage application, plastic box (symbol d); conditions: 320 g/ha, 3 weeks after application
Summary of the method: (§4)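 In a plastic box 7 cm deep filled with sterilized diluvial soil, seeds of crops and weeds such as Digitaria ciliaris, Avena fatua and Amaranthus retroflexus are sown in spots and covered with about 1.5 cm of soil before greenhouse growth at 25–30° C.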

wheat = assay: Test Example 4: effect on crop by soil treatment (symbol e); conditions: application herbicide amount 320 g/ha
Summary of the method: as §3

beet [7] = assay: Test Example 5: effect on crop by foliage application, plastic box (symbol f); conditions: 320 g/ha, 3 weeks after application
Summary of the method: as §4

[8] = test system: Echinochloa crus-galli var. crus-galli; assay: Test Example 4: herbicidal effect by soil treatment (symbol H); conditions: application herbicide amount 320 g/ha
Summary of the method: as §2

Apera spica-venti [9] = assay: Test Example 5: herbicidal effect by foliage application, plastic box (symbol L); conditions: 320 g/ha, 3 weeks after application
Summary of the method: as §1

rapeseed = assay: Test Example 4: effect on crop by soil treatment (symbol g); conditions: application herbicide amount 320 g/ha
Summary of the method: as §3

SMILES | O: Chenopodium album, herbicidal effect grade (Chenopodium album) | Herbicidal effect grade, B: Scirpus juncoides (Scirpus juncoides [1]) | Q: Galium spurium, herbicidal effect grade (Galium spurium) | G: Setaria viridis, herbicidal effect grade (Setaria viridis) | Herbicidal effect grade, B: Scirpus juncoides (Scirpus juncoides [2]) | N: Amaranthus retroflexus, herbicidal effect grade (Amaranthus retroflexus) | L: Apera spica-venti, herbicidal effect grade (Apera spica-venti [3]) | I: Avena fatua, herbicidal effect grade (Avena fatua [4]) | R: Veronica persica, herbicidal effect grade (Veronica persica) | I: Avena fatua, herbicidal effect grade (Avena fatua [5]) | f: beet, effect on crop grade (beet [6]) | d: soybean, effect on crop grade (soybean) | e: wheat, effect on crop grade (wheat) | f: beet, effect on crop grade (beet [7]) | H: Echinochloa crus-galli var. crus-galli, herbicidal effect grade [8] | L: Apera spica-venti, herbicidal effect grade (Apera spica-venti [9]) | g: rapeseed, effect on crop grade (rapeseed) | N (Amaranthus retroflexus) herbicidal effect grade (Amaranthus retroflexus) | L (Apera spica-venti) herbicidal effect grade (Apera spica-venti [3]) | I (Avena fatua) herbicidal effect grade (Avena fatua [4]) | also measured
CON=C(C)CC1CC(O)=C(c2c(C)cc(OCc3ccncc3)cc2C)C1=O (mixture of isomers) [6-053] | 0 (Herbicidal ratio of 5% or lower (almost no effect)) | 1 (Herbicidal ratio of 5% or higher and lower than 20%) | 0 (Herbicidal ratio of 5% or lower (almost no effect)) | 5 (Herbicidal ratio of 90% or more (almost completely withered)) | 2 (Herbicidal ratio of 20% or higher and lower than 40%) | 0 (Herbicidal ratio of 5% or lower (almost no effect)) | 0 (Herbicidal ratio of 5% or lower (almost no effect)) | 1 (Herbicidal ratio of 5% or higher and lower than 20%) | 0 (Herbicidal ratio of 5% or lower (almost no effect)) | 3 (Herbicidal ratio of 40% or higher and lower than 70%) | 0 (Herbicidal ratio of 5% or lower (almost no effect)) | 0 (Herbicidal ratio of 5% or lower (almost no effect)) | 0 (Herbicidal ratio of 5% or lower (almost no effect)) | 0 (Herbicidal ratio of 5% or lower (almost no effect)) | 2 (Herbicidal ratio of 20% or higher and lower than 40%) | 4 (Herbicidal ratio of 70% or higher and lower than 90%) | 0 (Herbicidal ratio of 5% or lower (almost no effect)) | – | – | – | –
CON=C(C)CC1CC(O)=C(c2c(C)cc(-c3ccc(F)cc3)cc2C)C1=O (mixture of isomers) [6-058] | – | 5 (Herbicidal ratio of 90% or more (almost completely withered)) | – | – | 5 (Herbicidal ratio of 90% or more (almost completely withered)) | 5 (Herbicidal ratio of 90% or more (almost completely withered)) | 5 (Herbicidal ratio of 90% or more (almost completely withered)) | 5 (Herbicidal ratio of 90% or more (almost completely withered)) | – | – | 4 (Herbicidal ratio of 70% or higher and lower than 90%) | – | 5 (Herbicidal ratio of 90% or more (almost completely withered)) | – | 5 (Herbicidal ratio of 90% or more (almost completely withered)) | – | 5 (Herbicidal ratio of 90% or more (almost completely withered)) | – | – | – | O: Chenopodium album, herbicidal effect (criteria of Test Example 1) (Chenopodium album): 5 (Herbicidal ratio of 90% or more (almost completely withered)); Q: Galium spurium, herbicidal effect (criteria of Test Example 1) (Galium spurium): 5 (Herbicidal ratio of 90% or more (almost completely withered)); G: Setaria viridis, herbicidal effect (criteria of Test Example 1) (Setaria viridis): 5 (Herbicidal ratio of 90% or more (almost completely withered)); R: Veronica persica, herbicidal effect (criteria of Test Example 1) (Veronica persica): 5 (Herbicidal ratio of 90% or more (almost completely withered)); I: Avena fatua, herbicidal effect (criteria of Test Example 1) (Avena fatua [5]): 5 (Herbicidal ratio of 90% or more (almost completely withered)); d: soybean, effect on crop (criteria of Test Example 1) (soybean): 2 (Herbicidal ratio of 20% or higher and lower than 40%); f: beet, effect on crop (criteria of Test Example 1) (beet [7]): 5 (Herbicidal ratio of 90% or more (almost completely withered)); L: Apera spica-venti, herbicidal effect (criteria of Test Example 1) (Apera spica-venti [9]): 5 (Herbicidal ratio of 90% or more (almost completely withered))
C=CCON=C(C)CC1CC(O)=C(c2c(C)cc(C)cc2C)C1=O (stereo not shown) [1-018] | – | 5 (Herbicidal ratio of 90% or more (almost completely withered)) | 4 (Herbicidal ratio of 70% or higher and lower than 90%) | 5 (Herbicidal ratio of 90% or more (almost completely withered)) | 5 (Herbicidal ratio of 90% or more (almost completely withered)) | – | – | – | 4 (Herbicidal ratio of 70% or higher and lower than 90%) | 5 (Herbicidal ratio of 90% or more (almost completely withered)) | – | 3 (Herbicidal ratio of 40% or higher and lower than 70%) | – | 4 (Herbicidal ratio of 70% or higher and lower than 90%) | – | 5 (Herbicidal ratio of 90% or more (almost completely withered)) | – | 2 (Herbicidal ratio of 20% or higher and lower than 40%) | 5 (Herbicidal ratio of 90% or more (almost completely withered)) | 4 (Herbicidal ratio of 70% or higher and lower than 90%) | f (beet) effect on crop grade (beet [6]): 0 (Herbicidal ratio of 5% or lower (almost no effect)); e (wheat) effect on crop grade (wheat): 4 (Herbicidal ratio of 70% or higher and lower than 90%); H (Echinochloa crus-galli var. crus-galli) herbicidal effect grade [8]: 5 (Herbicidal ratio of 90% or more (almost completely withered)); g (rapeseed) effect on crop grade (rapeseed): 4 (Herbicidal ratio of 70% or higher and lower than 90%)
C#CCON=C(C)CC1CC(O)=C(c2c(C)cc(C)cc2C)C1=O (stereo not shown) [1-019] | – | 5 (Herbicidal ratio of 90% or more (almost completely withered)) | 4 (Herbicidal ratio of 70% or higher and lower than 90%) | 5 (Herbicidal ratio of 90% or more (almost completely withered)) | 5 (Herbicidal ratio of 90% or more (almost completely withered)) | – | – | – | 4 (Herbicidal ratio of 70% or higher and lower than 90%) | 5 (Herbicidal ratio of 90% or more (almost completely withered)) | – | 3 (Herbicidal ratio of 40% or higher and lower than 70%) | – | 4 (Herbicidal ratio of 70% or higher and lower than 90%) | – | 5 (Herbicidal ratio of 90% or more (almost completely withered)) | – | 3 (Herbicidal ratio of 40% or higher and lower than 70%) | 5 (Herbicidal ratio of 90% or more (almost completely withered)) | 5 (Herbicidal ratio of 90% or more (almost completely withered)) | f (beet) effect on crop grade (beet [6]): 0 (Herbicidal ratio of 5% or lower (almost no effect)); e (wheat) effect on crop grade (wheat): 3 (Herbicidal ratio of 40% or higher and lower than 70%); H (Echinochloa crus-galli var. crus-galli) herbicidal effect grade [8]: 5 (Herbicidal ratio of 90% or more (almost completely withered)); g (rapeseed) effect on crop grade (rapeseed): 4 (Herbicidal ratio of 70% or higher and lower than 90%)
CC(=O)C1CC(O)=C(c2c(C)cc(C)cc2C)C1=O (stereo not shown) [8-001] | 0 (Herbicidal ratio of 5% or lower (almost no effect)) | 0 (Herbicidal ratio of 5% or lower (almost no effect)) | 0 (Herbicidal ratio of 5% or lower (almost no effect)) | 1 (Herbicidal ratio of 5% or higher and lower than 20%) | 0 (Herbicidal ratio of 5% or lower (almost no effect)) | – | – | – | – | 0 (Herbicidal ratio of 5% or lower (almost no effect)) | – | 0 (Herbicidal ratio of 5% or lower (almost no effect)) | – | 0 (Herbicidal ratio of 5% or lower (almost no effect)) | – | 0 (Herbicidal ratio of 5% or lower (almost no effect)) | – | – | – | – | Herbicidal effect grade, N: Amaranthus retroflexus (Amaranthus retroflexus): 0 (Herbicidal ratio of 5% or lower (almost no effect)); Herbicidal effect grade, L: Apera spica-venti (Apera spica-venti [3]): 0 (Herbicidal ratio of 5% or lower (almost no effect)); Herbicidal effect grade, I: Avena fatua (Avena fatua [4]): 0 (Herbicidal ratio of 5% or lower (almost no effect)); Effect on crop grade, f: beet (beet [6]): 0 (Herbicidal ratio of 5% or lower (almost no effect)); Effect on crop grade, e: wheat (wheat): 0 (Herbicidal ratio of 5% or lower (almost no effect)); Herbicidal effect grade, H: Echinochloa crus-galli var. crus-galli [8]: 0 (Herbicidal ratio of 5% or lower (almost no effect)); Effect on crop grade, g: rapeseed (rapeseed): 0 (Herbicidal ratio of 5% or lower (almost no effect))

Source: patent US11000033B2, “Ketone or oxime compound, and herbicide” (NISSAN CHEMICAL CORPORATION, priority 2014, dated 2021)
